Measured values reported in PubChem BioAssay AID2305 (GlaxoSmithKline (GSK), 2010).
Where a SMILES comes first, the peptide text is derived from it.

System: P. falciparum 3D7 growth, pLDH absorbance
Test: blood-stage malaria parasite growth potency – strain 3D7, dose response (AID 2305)

NC1=NCN(OCc2ccc(Cl)c(Cl)c2)C(N)=N1
IC50: 190 nM

COc1ccc(-c2ccc(NC(=O)c3ccc(Cl)cc3)cc2)cc1CN1CCC(O)CC1
IC50: 1090 nM

CN1CC=C(c2c[nH]c3ccc(C(=O)c4nccs4)cc23)CC1
IC50: 240 nM

Fc1ccc([C@H]2N=C(SCCSC3=N[C@H](c4ccc(F)cc4)[C@H](c4ccc(F)cc4)N3)N[C@H]2c2ccc(F)cc2)cc1
IC50: 910 nM

CC(C)Oc1ccc(N2CCN(CCCCNC(=O)c3ccc(NC(=O)c4ccc(Cl)cc4)cc3)CC2)c(OC(C)C)c1
IC50: 510 nM

NC1CCN(c2nc(NCCc3ccc(O)cc3)nc(NCc3ccccc3-c3ccc(C(F)(F)F)cc3)n2)CC1
IC50: 750 nM

COc1ccc(-c2nonc2NC(=O)c2cccc(C)c2)cc1OC
IC50: 810 nM

CCC1(c2ccccc2)N=C(N)N(CCCc2ccccc2)C1=O (centres undefined)
IC50: 890 nM

COc1ccc(CCOc2c(C)nc(N)nc2N)cc1OC
IC50: 70 nM

CN(C)C(=O)n1cnc(S(=O)(=O)N(C)c2ccc(Cl)cc2)n1
IC50: 770 nM

Cc1noc(C)c1-c1ccc2c(Nc3ccc([N+](=O)[O-])cc3)c(C(N)=O)cnc2c1
IC50: 690 nM

COc1ccc2nccc(C(=O)NC3CCC(CCN4CCc5cc(C#N)ccc5C4)CC3)c2c1 (centres undefined)
IC50: 1160 nM

c1cc(-c2ccc(CNCc3ccsc3)cc2)cc(-c2nc3ccccc3[nH]2)c1
IC50: 160 nM

CCNc1cc(C(=O)N[C@@H](Cc2ccccc2)[C@H](O)CNCc2cccc(OC)c2)c(OC)c(N2CCCCS2(=O)=O)c1
IC50: 690 nM

CCN(CC)CCCSc1ccc(-c2ccc(SCCCN(CC)CC)cc2)cc1
IC50: 1160 nM

CN(CCN1CCCC1)c1nc2ccc(-n3cnc4cc(-c5ccc(Cl)cc5)sc4c3=O)cc2[nH]1
IC50: 820 nM

CC(C)[C@H](NC(=O)c1ccc(O)c(-c2ccc(Cl)c(Cl)c2)c1)C(=O)NC1CCCCCC1
IC50: 220 nM

O=C(Nc1ccc(Cn2ncc(N3CCCNCC3)c(Cl)c2=O)cc1)Nc1ccc(OCc2ccccc2)cc1
IC50: 820 nM

COc1ccc2nccc(N3CCC(NCCNS(=O)(=O)c4ccc5c(c4)NC(=O)CS5)C3)c2n1 (centres undefined)
IC50: 900 nM

Cc1nnsc1C(=O)Nc1cccc(-c2ccc(-c3nc4ccc(C(F)(F)F)cc4[nH]3)cc2)c1
IC50: 310 nM

COc1cc(F)c2ncc(Cl)c(C(O)CN3CCC(NC(=O)c4ccc5c(c4)NC(=O)CS5)CC3)c2c1 (centres undefined)
IC50: 680 nM

CCCNCc1ccc(-c2ccc(CN(Cc3cnc(C)cn3)C(=O)c3nn(-c4ccccc4)nc3C)cc2)nc1
IC50: 420 nM

NC1CCN(Cc2cccc(-c3ccc(-c4nc5ccccc5[nH]4)s3)c2)C1 (centres undefined)
IC50: 730 nM

CCCCCCN=C(N)c1ccc2nc(-c3ccc(O)cc3)[nH]c2c1
IC50: 190 nM

COc1cc(Cc2cnc(N)nc2N)cc(OCCCCCC(=O)O)c1OC
IC50: 230 nM

CCCC(C)NC(=O)c1cnn(-c2ccc(C(C)(C)C)cc2)c1OCc1ccc(Br)cc1 (centres undefined)
IC50: 1060 nM

O=C(Nc1ccc2nc3n(c(=O)c2c1)CCCCC3)C(=O)N1CCN(c2ccc(F)cc2)CC1
IC50: 640 nM

CCc1nc(N)nc(N)c1-c1cccc(Cl)c1
IC50: 190 nM

Cc1ccc(CN2CCC(C(=O)Nc3ccc(-c4cc5ccccc5[nH]4)cc3)CC2)o1
IC50: 1420 nM

O=C(Nc1ccc(OC2CCN(Cc3ccsc3)C2)c(Cl)c1)c1ccc(F)cc1 (centres undefined)
IC50: 940 nM

CCCCc1cc(O)c2c(c1)OC(C)(C)C=C2C1=CCN(Cc2ccccc2)CC1
IC50: 250 nM

Cc1nnc2c(NC(=O)/C=C/c3ccc(OC(F)(F)F)cc3)cc3cc(Cl)ccc3n12
IC50: 170 nM

CCn1ncc2c(NC3CCOCC3)c(CNC(=O)c3ccnn3C)c(C)nc21
IC50: 530 nM

CCOc1c(N2CCN(CCCCNC(=O)c3ccc(NC(=O)c4ccc(Cl)cc4)cc3)CC2)ccc2ccccc12
IC50: 680 nM

O=C(/C=C/c1ccc(Cl)c(Cl)c1)NCCCCCN1CC[C@H](NC(=O)Nc2ccc(Oc3ccccc3)cc2)C1
IC50: 700 nM

CN1CCC(N(Cc2ccc(-c3ccc(C(F)(F)F)cc3)cc2)C(=O)Cn2cc(Cc3cnn(C)c3)c(=O)nc2SCc2cccc(F)c2F)CC1
IC50: 930 nM

CCOc1ccc(NC(=O)c2ccc(CN3CCCN(Cc4cccc(O)c4)CC3)cc2)cc1
IC50: 1310 nM

c1ccc(CNc2nc(NCCN3CCCCC3)nc3ccccc23)cc1
IC50: 1020 nM

N#Cc1ccccc1S(=O)(=O)N1CCCC(CNC(=O)[C@H](CC2CCCCC2)NC(=O)c2cc3ccccc3s2)C1 (some centres undefined)
IC50: 510 nM

COc1ccc(S(=O)(=O)Nc2cc(C)cc(Br)c2OC)cc1N1CCN(C(=O)C(Cl)(Cl)Cl)CC1
IC50: 870 nM

O=C(Nc1ccc2c(c1)CCCN2S(=O)(=O)c1cccs1)c1cc([N+](=O)[O-])ccc1Cl
IC50: 840 nM

COc1cccc(CCN(Cc2ccccc2-c2ccc(CNC3CC(C)(C)NC(C)(C)C3)cc2)C(=O)NC2CCCCC2)c1
IC50: 930 nM

COc1ccc(-c2cccc(NC(=O)c3cccc(Cl)c3)c2)cc1CN1CCCN(C)CC1
IC50: 230 nM

O=C(Cc1cccc(O)c1)NCC(Cc1ccc(O)cc1)c1ccccc1 (centres undefined)
IC50: 640 nM

CN(C)c1ccc(-c2nnc(Sc3ccc(C#N)c([N+](=O)[O-])c3)n2Cc2ccco2)cc1
IC50: 850 nM

Nc1nc(N)c2cc(Cc3ccccc3Cl)cnc2n1
IC50: 110 nM

O=C(NCc1ccc(Cl)c(Cl)c1)c1ccc(-c2nc3cc(F)c(F)cc3[nH]2)cc1
IC50: 1050 nM

C=Cc1ccc(-c2c(C)[nH]c(C)c(Br)c2=O)cc1
IC50: 560 nM

O=C(Nc1cccc(-c2ccc(-c3nc4ccc(F)cc4[nH]3)cc2)c1)c1ccncc1
IC50: 280 nM

CC(C)C[C@H]1c2[nH]c3ccc(Cl)cc3c2CCN1C(=O)CCc1ccccc1
IC50: 880 nM

Cc1cc(NCCc2ccccc2)nc(/N=C(\N)Nc2cccc(F)c2)n1
IC50: 900 nM

O=C(Nc1cccc(CN2CCCN(Cc3ncc[nH]3)CC2)c1)c1cc2ccccc2s1
IC50: 730 nM

O=c1cc(NCCCNCc2cn(S(=O)(=O)c3ccccc3)c3ccccc23)[nH]c2ccccc12
IC50: 880 nM

CCC1(C)CC(CCNCc2ccccc2O)(c2ccc(F)cc2)CCO1 (centres undefined)
IC50: 880 nM

CC1(C)N=C(N)N=C(N)N1c1cc(Cl)c(Cl)c(Cl)c1
IC50: 10 nM

COc1ccc2c(c1)Nc1ccc(Cl)cc1C2N (centres undefined)
IC50: 300 nM

CN1CCCC(CN2CCN(Cc3ccc(-c4ccc(-c5nc6ccccc6[nH]5)s4)cc3)CC2)C1 (centres undefined)
IC50: 130 nM

CC(C)C[C@H](Nc1ccnc(NCC2CCCCC2)n1)C(=O)NCCOc1ccccc1
IC50: 1020 nM

O=C(Nc1ccc(Cn2nc(Cl)c(N3CCCNCC3)cc2=O)cc1)c1ccc(-c2ccccc2)cc1
IC50: 710 nM

O=S(=O)(Nc1ccc(CCN2CCCCC2CCN2CCCC2)cc1)c1ccc(-c2ccccc2)cc1 (centres undefined)
IC50: 930 nM

O=C(C=Cc1ccccc1)Nc1ccc(C#CC=Cc2ccc(NC(=O)C=Cc3ccccc3)cc2)cc1
IC50: 850 nM

O=C(Nc1ccccc1O)C1CCN(c2ncnc3cc(-c4ccc(F)cc4)sc23)CC1
IC50: 870 nM

CC(=O)c1ccc(Nc2c(C(N)=O)cnc3cc(-c4c(C)noc4C)ccc23)cc1
IC50: 190 nM

COc1ccc2[nH]c3ccccc3c(=O)c2c1
IC50: 1000 nM

Fc1cccc(Nc2nc(NCc3ccc4ccsc4c3)nc(Nc3cccc(F)c3)n2)c1
IC50: 1080 nM

COc1cc(C(F)(F)F)nc2c(CNCCCNc3cc(=O)c4ccccc4[nH]3)scc12
IC50: 1180 nM

Cc1cc(=O)c(-c2ccc(OCc3ccc(Cl)cc3)cc2)c(C)[nH]1
IC50: 730 nM

COc1cccc(C=CC(=O)N(CCN)Cc2ccccc2)c1
IC50: 820 nM

O=C1COc2ccccc2N1C/C=C(\CN1CCC(c2ccccc2)CC1)c1cc(Cl)cc(Cl)c1
IC50: 210 nM

COc1c(C2CCN(CCCCNC(=O)C=Cc3cc4cc(Cl)ccc4o3)CC2)ccc2c1CCCC2
IC50: 1310 nM

COc1ccc(C2C(C(=O)Nc3ccc(C)cc3Br)c3ccccc3C(=O)N2C)cc1 (centres undefined)
IC50: 940 nM

Brc1cc(CNCCCNc2nc3ccccc3[nH]2)sc1Br
IC50: 220 nM

O=C(Nc1ccc(-c2nc3ccccc3[nH]2)cc1)c1ccc(S(=O)(=O)N2CCCCCC2)cc1
IC50: 410 nM

Cc1cc(Nc2cccc(C(F)(F)F)c2)nc(N)n1
IC50: 790 nM

CCCCC(N)COc1cccc2c(-c3ccncc3)c(-c3cccc(NC(=O)Nc4ccccc4)c3)nn12 (centres undefined)
IC50: 880 nM

CCO[C@H]1CN[C@H](C#Cc2cc3c(Nc4ccc(OCc5cccc(F)c5)c(Cl)c4)ncnc3s2)C1
IC50: 940 nM

CCC(=Cc1cccc([N+](=O)[O-])c1)C(=O)NCC1CCN(c2nc(N)c3cc(OC)c(OC)cc3n2)CC1
IC50: 240 nM

O=C(Nc1cc(Cl)ccc1-n1cncn1)C1(c2ccccc2)CC1
IC50: 450 nM

O=C(Nc1ccc(-c2ccccc2)cc1)Nc1ccc2c(c1)CCNCC2
IC50: 350 nM

CC(C)Oc1cc2c(cc1NS(=O)(=O)c1ccc(-c3ccc(Cl)s3)cc1F)CCN(C)CC2
IC50: 710 nM

CN(C)CCCNC(=O)c1ccccc1Sc1ccccc1C#N
IC50: 1140 nM

O=C(Nc1cccc(CN2CCCN(Cc3cccc(O)c3)CC2)c1)c1ccc(-c2ccccc2)cc1
IC50: 640 nM

CN(C)CCCOc1ccc(CCCCc2ccc(Cl)cc2C(=O)c2ccccc2)cc1
IC50: 1030 nM

CCOc1ccc(-c2nonc2NC(=O)c2cccc(Cl)c2)cc1OCC
IC50: 150 nM

O=C(NCC(=O)N1CCC[C@H]1C(=O)O)[C@@H](Cc1ccccc1)NC(=O)[C@@H]1CCCN1C(=O)CCCc1ccc(O)cc1 (HELM PEPTIDE1{[O=C(CCCc1ccc(O)cc1)[*:2]].P.[dF].G.P}$$$$V2.0)
IC50: 1050 nM

Cc1ccc(Nc2nnc(SCC(=O)Nc3ccc(CN4CCCC4)cc3)s2)cc1
IC50: 1210 nM

Nc1ncc(-c2ccccc2)cc1-c1cccc2ncccc12
IC50: 270 nM

CC(C)(C)C1CC(=O)C[C@@H]2C(=O)N(c3ccc(Br)cc3)C(=O)[C@H]12 (some centres undefined)
IC50: 930 nM

Cc1cc(N2CCCC2)nc(Nc2ccc(NC(=O)C(C)C)cc2)n1
IC50: 1100 nM

CCn1cc(C=C2Oc3c(ccc(O)c3CN3CCCCC3)C2=O)c2cc(OC)ccc21
IC50: 520 nM

CN(C)c1cccc2c(S(=O)(=O)Nc3cccc(CCN4CCC(N5CCCCC5)CC4)c3)cccc12
IC50: 980 nM

CCOC(=O)c1ccc(NC(=O)Nc2ccc(-c3ccc(-c4nc5c(C)cccc5[nH]4)s3)cc2)cc1
IC50: 200 nM

Cc1cc(C(=O)Nc2ccc(-c3ccccc3)cc2)no1
IC50: 690 nM

CCCNc1nc(Nc2ccccc2C)nc2ccccc12
IC50: 890 nM

c1ccc2c3c(ccc2c1)Sc1c(ccc2ccccc12)N3
IC50: 1070 nM

Cc1ccc2nc3sc(C(=O)NCCCN4CCC(N5CCCCC5)CC4)cc3cc2c1
IC50: 670 nM

CN(C)CCN(C)Cc1ccc(-c2cccc(NC(=O)c3cccc(C#N)c3)c2)cc1
IC50: 1180 nM

CCc1cccc(NC(=O)c2ccc(CN3CCCN(CC4CCCCC4)CC3)cc2)c1
IC50: 400 nM

O=C(Nc1cccc(F)c1)N1CCC(NS(=O)(=O)c2ccc(Br)cc2)CC1
IC50: 980 nM
